The subject of experiment [1] is IFN induction in dsDNA-stimulated human whole blood. The experiment can be described thus: Human whole blood assay (hWB IC50), dsDNA stimulated, IFNα2α production. The note with it: Table 1. It is filed as cell-based. The protocol: 6.3 Method: Human Whole Blood Assay (Human WB IC50)
For the detection of cellular cGAS activity human whole blood was stimulated by transfection with double stranded DNA. Pathway activity was monitored by measuring the IFNα2α production.
Compounds were delivered as 10 mM DMSO solution and serially diluted and transferred to the 96-well cell culture plate (Corning #3595), prefilled with 20 μl OptiMEM (Gibco, #11058-021) in each well, using an Echo acoustic dispenser. Typically, 8 concentrations were used with the highest concentration at 10 μM in the final assay volume followed by ^˜1:5 dilution steps. DMSO concentration was set to 0.1% in the final assay volume. The 96-well assay plate contained 10 test compounds, and DMSO in control wells.
Collection of human whole blood from 3 or more healthy donors (male or female, no medication for 7 days except contraceptive and thyroxine) as Na-Citrate blood (e.g. 3.8% in Monovettes from Sarstedt) was conducted in parallel. Whole blood was kept at room temperature for a maximum of 3 hours after collection until use in the assay. 160 μl of the whole blood samples was transferred to each well of the 96-well assay plates filled with compound/OptiMEM. All assay plates were prepared as duplicates with blood from different donors. Blood plates were kept at room temperature for 60 minutes and continuous shaking with 450 rpm, covered with the lid, but not sealed.
20 μl OptiMEM and 9.6:1 Fugene was added to all low control wells.
After covering assay plates with aera seals and the lid, blood plates were kept at room temperature for 30 minutes and continuous shaking with 450 rpm, followed by an overnight incubation of 22 h at 37° C. in the incubator, without shaking.
For the detection of IFNα-2α in human plasma, the biotinylated capture antibody (Antibody set IFNA2, Meso Scale Diagnostics #B21VH-3, including coating and capture antibody) was diluted 1:17.5 in Diluent 100 (Meso Scale Diagnostics #R50AA-4), according to the manufacturer's directions. U-Plex MSD GOLD 96-well Small Spot Strepavidin SECTOR Plates (Meso Scale Diagnostics #L45SA-5) were coated with 25 μl diluted capture antibody. Coated plates were incubated for 60 min at room temperature under continuous shaking at 700 rpm. MSD IFNα-2α plates were washed three times with 150 μl wash buffer (1× HBSS, 0.05% Tween).
After blocking the plates with 100 μl block solution/well (1× HBSS with 0.2% Tween, 2% BSA) for 60 min at room temperature and continuous shaking at 700 rpm, plates were emptied as dry as possible by dumping just before continuing with the human plasma.
Whole Blood assay plates were centrifuged at 1600 rpm for 10 minutes. 25 μl of supernatant was transferred with a pipetting robot from each whole blood plate to the corresponding IFNα-2α plate. Plates were sealed with microplate seals and kept at room temperature again under continuous shaking at 700 rpm for two hours.
Next MSD IFNα-2α plates were washed three times with 150 μl wash buffer (1× HBSS, 0.05% Tween), before adding 25 μl MSD SULFO-TAG IFNα-2α Antibody solution (1:100 diluted in Diluent 3 (Meso Scale Diagnostics #R50AP-2) to each well of the plates.
Afterwards plates were sealed with microplate seals and kept at room temperature again under continuous shaking at 700 rpm for two hours. Finally, MSD IFNα-2α plates were washed three times with 150 μl wash buffer (1× HBSS, 0.05% Tween). 150 μl 2× Read buffer was added to each well and plates were immediately measured with the MSD Sector S600 Reader using the vendor barcode.
(§1) Data Evaluation and Calculation:
For data evaluation and calculation, % control calculation of each well was based on the mean of high (DNA stimulated control) and mean of low (unstimulated control) controls by using the following formula:
[counts(sample)−counts(low))/(counts(high)−counts(low))]*100
The IC50-values were calculated using the standard 4 parameter logistic regression formula. […]

Experiment [2] deals with IFN induction in virus-stimulated THP1 cells. The experiment can be described thus: Human cGAS cell assay, virus-stimulated THP1-Dual cells (THP1(vir) IC50). The note with it: THP-1, 18 h, Table 1, baculovirus-stimulated THP1-Dual cells, Lucia luciferase, 18 h, read-out: THP(vir) IC50. Type of experiment: cell-based.
Excerpt: (§2) 6.2 Method: Human cGAS Cell Assay and cGAMP Stimulated Counter Cell Assay (THP1(vir) IC50 and THP1(cGAMP) IC50)
THP1-Dual™ cells (InvivoGen #thpd-nfis) expressing IRF dependent Lucia luciferase reporter were used as basis for both assays. For the detection of cellular cGAS activity cells were stimulated by a baculovirus (pFastbac-1, Invitrogen, no coding insert) infection that delivers the cGAS enzyme stimulating double-stranded DNA (measurement of THP1(vir) IC50).
(§3) Pathway activity was monitored by measuring the Lucia luciferase activity induced by either DNA stimulated cGAS enzyme activity (measurement of THP1(vir) IC50) or by cGAMP directly (measurement of THP1(cGAMP) IC50, counter assay).
(§4) Compounds were delivered in 10 mM DMSO solution, serially diluted and transferred to the 384 well assay plate (Greiner #781201) using an Echo acoustic dispenser. Typically, 8 concentrations were used with the highest concentration at 10 μM in the final assay volume followed by ^˜1:5 dilution steps. DMSO concentration was set to 1% in the final assay volume. The 384 well assay plate contained […] (column 1-22), and DMSO in column 23 and 24.
(§5) Cells, cultivated according to manufacturer conditions, were harvested by centrifugation at 300 g/10 min and were then resuspended and diluted to 1.66E5 cells/ml in fresh cell culture medium (RPMI 1640 (Gibco #A10491-01), 10% FCS (Gibco #10500), 1× GlutaMax (Gibco #35050-061), 1× Pen/Strep solution (Gibco #15140-122), 100 μg/ml Normocin (InvivoGen #ant-nr), 100 μg/ml Zeocin (InvivoGen #ant-zn), 10 μg/ml Blasticidin S (Life Technologies #A11139-03)). The baculovirus solution was then added 1:200 (have varied according to virus batch) to the cells (measurement of THP1(vir) IC50).
(§6) 30 μL of the cell/virus-mix were added to each well of the compound plate from column 1-23 via MultiDrop Combi dispenser (5000 cells/well). In column 24, 30 μl/5000 cells/well without virus were added as a low control.
(§7) The plates were then incubated for 18 h at 37° C. in a humidified incubator.
(§8) Following that, 15 μL of QuantiLuc detection reagent (InvivoGen #rep-qlcg5) were added to each well using a MultiDrop Combi. Measurement was done immediately after the addition using an EnVision reader (US-luminescence read-mode).
as §1
(§9) For data evaluation and calculation, the measurement of the low control was set as 0% control and the measurement of the high control was set as 100% control. The IC50 values were calculated using the standard 4 parameter logistic regression formula. Calculation: [y=(a−d)/(1+(x/c)^b)+d], a=low value, d=high value; x=conc M; c=IC50 M; b=slope

For experiment [3], the system named is IFN induction in cGAMP-stimulated THP1 cells. The experiment can be described thus: cGAMP stimulated counter cell assay in THP1-Dual cells (THP1(cGAMP) IC50). It is filed as cell-based, human. The note with it: Table 1; for IC50: Homo sapiens, THP-1, counter assay, 10 μM cGAMP stimulation, read-out: THP(cGAMP) IC50; for Ratio THP(cGAMP) IC50/THP(vir) IC50: selectivity for cGAS-inhibition.
Excerpt: as §2
For the counter assay, cells were stimulated by cGAMP (SigmaAldrich #SML1232) to activate the identical pathway independent and directly downstream of cGAS (measurement of THP1(cGAMP) IC50).
as §3, §4, §5, §6, §7, §8, §1, §9

The structures appear in SMILES notation.

The IC50 is the concentration needed to halve the response being measured. `O=C(O)[C@@H]1C[C@H]2CN1c1nc(nc3c1oc1ccccc13)CCOCCCC(=O)N1CCC(CC1)n1c(nc3cc(F)ccc31)O2` [Example 1.03]: the IC50 is 36 nM in experiment [1], 110 nM in experiment [2] and more than 10000 nM in experiment [3]. For the same compound, the “Ratio THP(cGAMP) IC50/THP(vir) IC50” value in experiment [3] is on record as more than 90.
Consider `C[C@H]1CN2CC[C@@H]1n1c(nc3ccccc31)O[C@H]1C[C@@H](C(=O)O)N(C1)c1nc(nc3c1oc1cc(Cl)ccc13)C(F)(F)CCCCCC2=O` [Example 1.16], for which the IC50 stood at 10 nM in experiment [1], 9.7 nM in experiment [2] and 11000 nM in experiment [3]. The “Ratio THP(cGAMP) IC50/THP(vir) IC50” value in experiment [3] is recorded as 1134.
For `Cc1cccc2c1nc1n2[C@@H]2CCN(C[C@H]2C)C(=O)CCCCCC(F)(F)c2nc(c3oc4ccccc4c3n2)N2C[C@H](C[C@H]2C(=O)O)O1` [Example 1.27], in that order: 1580 nM, 180 nM, 6000 nM and 33.
In the case of `C[C@H]1CN2CC[C@@H]1n1c(nc3ccccc31)O[C@H]1C[C@@H](C(=O)O)N(C1)c1nc(nc3c1oc1ccccc13)C(F)(F)COCCCC2=O` [Example 4.01], the IC50 is 1 nM in experiment [1], 0.69 nM in experiment [2] and more than 10000 nM in experiment [3]. Moreover, the “Ratio THP(cGAMP) IC50/THP(vir) IC50” value in experiment [3] is recorded as more than 14442.
With `C[C@H]1CN2CC[C@@H]1n1c(nc3ccc(Cl)cc31)O[C@H]1C[C@@H](C(=O)O)N(C1)c1nc(nc3c1oc1ccccc13)CCOCCCC2=O` [Example 1.06], the half-maximal inhibitory concentration (IC50) was 15 nM in experiment [1], 4.1 nM in experiment [2] and more than 10000 nM in experiment [3]. In addition, the “Ratio THP(cGAMP) IC50/THP(vir) IC50” value in experiment [3] is more than 2417.
On the same counts, the results for `CC1CCc2nc(c3oc4ccccc4c3n2)N2C[C@H](C[C@H]2C(=O)O)Oc2nc3cc(Cl)ccc3n2[C@H]2CCN(C[C@@H]2C)C(=O)CCO1` (some centres unmarked) [Example 1.20] are 7 nM, 13 nM, more than 10000 nM and more than 773.
Consider `C[C@H]1CN2CC[C@@H]1n1c(nc3cc(Cl)ccc31)O[C@H]1C[C@@H](C(=O)O)N(C1)c1nc(nc3c1oc1ccccc13)CCOCCCC2=O` [Example 1.02], for which the IC50 was 5 nM in experiment [1], 2.8 nM in experiment [2] and more than 10000 nM in experiment [3]. The “Ratio THP(cGAMP) IC50/THP(vir) IC50” value in experiment [3] is on record as more than 3557.
As to `C[C@H]1CN2CC[C@@H]1n1c(nc3cc(Cl)ccc31)O[C@H]1C[C@@H](C(=O)O)N(C1)c1nc(nc3c1oc1ccccc13)C(F)(F)OCCCCC2=O` [Example 6.01], the results for the IC50 in experiment [1], in experiment [2] and in experiment [3] were 3 nM, 3.1 nM and more than 10000 nM, respectively. In addition, the “Ratio THP(cGAMP) IC50/THP(vir) IC50” value in experiment [3] is reported as more than 2225.
As to `C[C@H]1CN2CC[C@@H]1n1c(nc3ccccc31)O[C@H]1C[C@@H](C(=O)O)N(C1)c1nc(nc3c1oc1cc(F)ccc13)C(F)(F)CCCCCC2=O` [Example 1.14], the half-inhibitory concentration (IC50) in experiment [1] amounted to 4 nM; in experiment [2], 1.5 nM; in experiment [3], 18000 nM. The “Ratio THP(cGAMP) IC50/THP(vir) IC50” value in experiment [3] is given as 11920.
Consider `C[C@@H]1CCCCC(=O)N2CCC(CC2)n2c(nc3ccccc32)O[C@H]2C[C@@H](C(=O)O)N(C2)c2nc1nc1c2oc2ccccc21` [Example 1.26], for which the values for the IC50 in experiment [1], in experiment [2] and in experiment [3] were 19 nM, 5.5 nM and 15000 nM, respectively. The “Ratio THP(cGAMP) IC50/THP(vir) IC50” value in experiment [3] was determined as 2687.
On the same counts, the results for `C[C@H]1CN2CC[C@@H]1n1c(nc3ccccc31)O[C@H]1C[C@@H](C(=O)O)N(C1)c1nc(nc3c1oc1ccccc13)CCCCCOC2=O` [Example 10.02] are 83 nM, 64 nM, more than 10000 nM and more than 156.
On the same counts, the results for `C[C@H]1CN2CC[C@@H]1n1c(nc3cc(F)ccc31)O[C@H]1C[C@@H](C(=O)O)N(C1)c1nc(nc3c1oc1cc(F)ccc13)C(F)(F)CCCCCC2=O` [Example 1.15] are 3 nM, 7.1 nM, more than 10000 nM and more than 1408.
Take `C[C@H]1CN2CC[C@@H]1n1c(nc3cc(Cl)ccc31)O[C@H]1C[C@@H](C(=O)O)N(C1)c1nc(nc3c1oc1ccccc13)C(F)(F)CCCOCC2=O` [Example 1.21]: the IC50 in experiment [1] is 1 nM; in experiment [2], 1.9 nM; in experiment [3] it was more than 10000 nM. Moreover, the “Ratio THP(cGAMP) IC50/THP(vir) IC50” value in experiment [3] is on record as more than 5238.
On the same counts, the results for `C[C@H]1CN2CC[C@@H]1n1c(nc3ccc(Cl)cc31)O[C@H]1C[C@@H](C(=O)O)N(C1)c1nc(nc3c1oc1ccccc13)C(F)(F)CCCCCC2=O` [Example 1.13] are 15 nM, 4.9 nM, 11000 nM and 2251.
On the same counts, the results for `C[C@H]1CN2CC[C@@H]1n1c(nc3cc(Cl)ccc31)O[C@H]1C[C@@H](C(=O)O)N(C1)c1nc(nc3c1oc1cc(Cl)ccc13)CCOCCCC2=O` [Example 1.08] are 17 nM, 2.4 nM, 9500 nM and 3928.
Turning to `O=C(O)[C@@H]1C[C@H]2CN1c1nc(nc3c1oc1ccccc13)CCCOCC(=O)N1CCC(CC1)n1c(nc3ccccc31)O2` [Example 9.01], the half-maximal inhibitory concentration (IC50) came out at 41 nM in experiment [1] and 400 nM in experiment [2].

Source of the values: patent US20240208997A1, “CYCLIC BENZIMIDAZOLE DERIVATIVES AS CGAS INHIBITORS” (Boehringer Ingelheim International GmbH, priority 2022, published 2024).
